In US6048862A, “Benzylamidine derivatives with serotonin receptor binding activity” (Virginia Commonwealth University, priority 1999, dated 2000):
pEC50, pKi: −log10 of the molar value. Counter-ions that a name gives are not always drawn. Like-named read-outs stand apart in the source and are kept apart here. Blank lines part the entries; values can stand above or below the compound they belong to.

Experiments:
5-HT1Dα = 5-HT1Dα (Homo sapiens, UniProt P28221); test: biochemical; format: binding; settings: for 5-HT1Dβ / 5-HT1Dα: ratio of Ki values, selectivity for 5-HT1Dα over 5-HT1Dβ
Description: (§1) Compounds of the previous examples, as well as reference compounds were evaluated for binding affinity using cell types receptive specifically to 5-HT1Dα and 5-HT1Dβ ligands. The assay protocol generally entailed the incubation of membranes prepared from cells expressing the 5-HT1Dα or 5-HT1Dβ subtype of 5-HT receptors with ^3 H-serotonin. Increasing concentrations of the test compound were incubated with the radioligand and the membrane homogenates prepared from the recombinant cells. After a 60 minute incubation at 22° C., the incubation was terminated by vacuum filtration. The filters were washed with buffer and counted for radioactivity using liquid scintillation spectroscopy. The affinity of the test compound for the 5-HT1Dα or 5-HT1Dβ receptor was determined by computer-assisted analysis of the data and by determining the amount of compound necessary to inhibit 50% of the binding of the radioligand to the receptor. Concentrations ranging from 10^-11 M to 10^- 5 M of the test compound were evaluated.

5-HT1Dβ = 5-HT1Dβ (Homo sapiens, UniProt P28222); test: Binding affinity, 3H-serotonin displacement, membranes of recombinant cells expressing 5-HT1Dβ
Description: as §1

5-HT1D receptor = target: T1, 5-HT1D receptor (Oryctolagus cuniculus, UniProt P49144); test: 5-HT1D receptor agonist assay: contraction of isolated rabbit saphenous vein; format: cell-based
T1 construct: Ring segments of the vein (4-5 mm in length) were cut and the endothelium gently removed; from tissue; host or cells: saphenous vein rings, endothelium removed, male New Zealand White rabbit
Description: The saphenous veins from both the left and right side were cleaned of fat and connective tissue and placed in Krebs solution (118 mM NaCl, 11 mM glucose, 25 mM NaHCO3, 4.7 mM KCl, 2.5 mM CaCl2. 2H2 O, 1.2 mM KH2 PO4, and 1.2 mM MgSO4. 7H2 O. Ring segments of the vein (4-5 mm in length) were cut and the endothelium gently removed. The segments were mounted in 10 mL baths containing Krebs buffer and were constantly aerated with 95% oxygen/5% carbon dioxide and maintained at 37° C. and pH 7.4 in order to record the isometric tension. A resting tension of 2.5 g was applied and the tissues allowed to equilibrate for 90 minutes, with washing every 15-20 minutes. After the equilibrium period, the rings were depolarized by the addition of two aliquots of KCl (80 mM final concentration) separated by a 20 minute washing period. The tissues were then exposed to prazosin, idazoxan and indomethacin (all 1 μM final concentration) for 30 minutes in order to exclude the actions of α1 - and α2 -adrenergic receptors and prostaglandin receptors respectively. […] Responses were calculated as a percentage of the maximal contraction evoked by 80 mM KCl. Only one compound was tested per preparation.
EC50 represents the concentration of the compound which causes 50% of the maximum contraction effected by it. If the compound included a maximum contraction of less than 60% of that of KCl (80 mM), it was considered a partial agonist.

[1] = 3H-serotonin radioligand, 60 minute incubation at 22° C., read-out: 5-HT1Dα Kl
[2] = 3H-serotonin radioligand, 60 minute incubation at 22° C., read-out: 5-HT1Dβ Kl
[3] = rabbit isolated saphenous vein, prazosin, idazoxan and indomethacin (1 μM) present, 50% of the compound's own maximum contraction, 37° C., pH 7.4, read-out: EC50

Chain of 5-HT1Dα (P28221 whole entry): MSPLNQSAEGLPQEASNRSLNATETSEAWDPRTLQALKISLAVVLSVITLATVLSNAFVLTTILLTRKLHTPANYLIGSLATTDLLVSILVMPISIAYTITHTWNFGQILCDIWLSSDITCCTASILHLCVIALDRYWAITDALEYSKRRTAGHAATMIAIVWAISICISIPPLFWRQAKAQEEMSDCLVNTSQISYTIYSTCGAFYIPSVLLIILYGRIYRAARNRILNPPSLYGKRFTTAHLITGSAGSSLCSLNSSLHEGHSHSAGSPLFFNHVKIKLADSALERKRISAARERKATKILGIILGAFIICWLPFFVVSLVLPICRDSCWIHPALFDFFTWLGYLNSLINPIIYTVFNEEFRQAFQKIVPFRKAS
T1 sequence (P49144 whole entry): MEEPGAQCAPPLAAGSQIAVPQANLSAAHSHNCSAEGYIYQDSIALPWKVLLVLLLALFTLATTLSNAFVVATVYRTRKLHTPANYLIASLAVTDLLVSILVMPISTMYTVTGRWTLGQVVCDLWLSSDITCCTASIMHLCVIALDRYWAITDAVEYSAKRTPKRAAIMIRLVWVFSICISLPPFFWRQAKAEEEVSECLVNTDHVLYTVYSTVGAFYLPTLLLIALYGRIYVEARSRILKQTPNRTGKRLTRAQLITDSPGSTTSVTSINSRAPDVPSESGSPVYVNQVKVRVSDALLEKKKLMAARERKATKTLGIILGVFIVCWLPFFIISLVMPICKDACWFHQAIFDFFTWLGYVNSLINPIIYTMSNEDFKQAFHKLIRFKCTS
Chain of 5-HT1Dβ (P28222 whole entry): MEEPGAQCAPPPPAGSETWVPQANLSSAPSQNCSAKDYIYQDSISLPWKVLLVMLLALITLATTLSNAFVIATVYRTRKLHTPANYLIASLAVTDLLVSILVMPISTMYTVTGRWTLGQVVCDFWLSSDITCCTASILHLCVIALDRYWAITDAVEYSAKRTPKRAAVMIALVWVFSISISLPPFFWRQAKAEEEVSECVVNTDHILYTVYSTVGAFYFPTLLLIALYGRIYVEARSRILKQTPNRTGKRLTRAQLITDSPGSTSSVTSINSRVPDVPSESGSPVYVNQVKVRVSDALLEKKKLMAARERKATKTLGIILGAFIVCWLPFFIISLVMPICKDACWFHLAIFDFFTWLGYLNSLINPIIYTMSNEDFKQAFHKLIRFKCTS

Structure (SMILES): CC(C)c1ccc(CC2=NCCN2)cc1.Cl [Example 5a, 4,5-Dihydro-2-[(4-isopropylphenyl)methyl]-1H-imidazole Hydrochloride]
pKi (5-HT1Dα; [1]): 6.47
5-HT1Dβ / 5-HT1Dα (5-HT1Dα): 8
pKi (5-HT1Dβ; [2]): 5.56

Structure (SMILES): CC(C)(C)c1ccc(CC2=NCCN2)cc1 [Example 5b, 2-[(4-t-Butyphenyl)methyl]-4,5-dihydro-1H-imidazole hydrochloride]
pKi (5-HT1Dα; [1]): 6.98
5-HT1Dβ / 5-HT1Dα (5-HT1Dα): > 95
pKi (5-HT1Dβ; [2]): < 5.00

Structure (SMILES): Cc1cc(C(C)(C)C)cc(C)c1CC1=NCCN1 [Example 5c, 2-[(4-t-Butyl-2,6-dimethylphenyl)methyl]-4,5-dihydro-1H-imidazole hydrochloride]
pKi (5-HT1Dβ): 7.83

Structure (SMILES): Cc1cc(Br)cc(C)c1CC1=NCCN1.Cl [Example 5d, 2-[(4-Bromo-2,6-dimethylphenyl)methyl]-4,5-dihydro-1H-imidazole hydrochloride]
pKi (5-HT1Dα; [1]): 7.13
5-HT1Dβ / 5-HT1Dα (5-HT1Dα): 21
pKi (5-HT1Dβ; [2]): 5.80

Structure (SMILES): Cc1cc(C)c(CC2=NCCN2)c(C)c1.Cl [Example 5e, 4,5-Dihydro-2-[(2,4,6-trimethylphenyl)methyl]-1H-imidazole hydrochloride]
pKi (5-HT1Dα): 7.04
5-HT1Dβ / 5-HT1Dα (5-HT1Dα): 20
pKi (5-HT1Dβ; [2]): 5.46

Structure (SMILES): Cc1cc(C(C)C)cc(C)c1CC1=NCCN1.Cl [Example 5f, 4,5-Dihydro-2-[(2,6-dimethyl-4-isopropylphenyl)methyl]-1H-imidazole hydrochloride]
pKi (5-HT1Dα): 8.80
5-HT1Dβ / 5-HT1Dα (5-HT1Dα): 23
pKi (5-HT1Dβ; [2]): 7.43

Structure (SMILES): Cl.c1ccc2cc(CC3=NCCN3)ccc2c1 [Example 5g, 4,5-Dihydro-2-(2-naphthalenylmethyl)-1H-imidazole hydrochloride]
pKi (5-HT1Dα): 6.87
5-HT1Dβ / 5-HT1Dα (5-HT1Dα): 9
pKi (5-HT1Dβ): 5.93

Structure (SMILES): Cc1cc(C(C)(C)C)cc(C)c1CC1=NCCN1Cc1ccccc1.Cl [Example 5i, 2-[(4-t-Butyl-2,6-dimethylphenyl)methyl]-1-benzyl-4,5-dihydroimidazole hydrochloride]
pKi (5-HT1Dα; [1]): 7.52
5-HT1Dβ / 5-HT1Dα (5-HT1Dα): 62
pKi (5-HT1Dβ; [2]): 5.73

Structure (SMILES): Cc1cc(C(C)(C)C)cc(C)c1CC1=NCCCN1.Cl [Example 5j, 2-(4-t-Butyl-2,6-dimethylbenzyl)-1,4,5,6-tetrahydropyrimidine hydrochloride]
pKi (5-HT1Dα; [1]): 7.46
5-HT1Dβ / 5-HT1Dα (5-HT1Dα): > 143
pKi (5-HT1Dβ; [2]): < 5.30

Structure (SMILES): Cc1cc(C(C)(C)C)ccc1CC1=NCCN1.Cl [Example 5k, 2-[(4-t-Butyl-2-methylphenyl)methyl]-4,5-dihydro-1H-imidazole hydrochloride]
pKi (5-HT1Dα; [1]): 8.17
5-HT1Dβ / 5-HT1Dα (5-HT1Dα): 105
pKi (5-HT1Dβ; [2]): 6.15

pKi (5-HT1Dα; [1]): 7.89
5-HT1Dβ / 5-HT1Dα (5-HT1Dα): 46
pKi (5-HT1Dβ; [2]): 6.22
Structure (SMILES): Cc1cc(C(C)(C)C)cc(C)c1CC(=N)N [Example 6, 4-t-Butyl-2,6-dimethylbenzeneethanimidamide]

Structure (SMILES): CC(C)(C)c1ccc(CC2=NCCN2)cc1 [drawing 22]
pEC50 (5-HT1D receptor; [3]): 5.54

Structure (SMILES): Cc1cc(C)c(CC2=NCCN2)c(C)c1 [drawing 23]
pEC50 (5-HT1D receptor): 7.00

pEC50 (5-HT1D receptor; [3]): 7.64
Structure (SMILES): Cc1cc(C(C)(C)C)cc(C)c1CC(=N)N [drawing 24]

pKi (5-HT1Dβ; [2]): 9.48
Structure (SMILES): Cc1cc(C(C)(C)C)c(O)c(C)c1CC1=NCCN1 [oxymetazoline, reference compound]
